We go through nine compounds from patent publication US10174015B2, “Substituted heterocyclic derivative, preparation method and use thereof” (Xiamen University, priority 2014, dated 2019).

Like-named read-outs stand apart in the source and are kept apart here.

Data set [1] can be described thus: Assay on drug metabolism in rat. The following applies: SD, plasma, iv, 30 mg/Kg via jugular vein. Type of data set: in vivo, SD rats. The text has this:
50 SD rats (purchased from Shanghai SLAC Laboratory Animal Co., Ltd) were divided into 5 groups randomly, 10 rats per group. After anesthesia with ether, rat was fixed on the operating table on its back, and was shaved at the operative site of neck. After disinfection with 75% alcohol, the neck was cut about 1.5 cm longitudinally, muscle tissues and nervi vascularis surrounding trachea were separated by blunt dissection, and carotid artery was separated by blunt dissection. Ligation was performed at distal end, an artery clamp was used at proximal part, and the distance between them was about 1 cm. A small cut was made with a pair of ophthalmic scissors at proximal part close to the ligated site, and arterial duct was introduced from the small cut to the proximal part, the artery clamp was loosened, the arterial ostium was clamped with smooth forceps, whilst the arterial duct was delivered to heart ventricle. Upon the introduction of the arterial duct into heart ventricle, the blood vessel was ligated. By using the same intubation method for artery, intubation was applied to jugular veins. After intubation, a tubule filled with heparin sodium was drawn out from artery and vein, which passed through the skin under the ear of the rat and drawn out from the dorsal part skin of the neck of the rat, and the tubule was fixed well. The muscles and skin were sutured at the surgical site of the rat, and normal saline containing heparin sodium was injected from time to time via the tubule connecting the artery and the vein to prevent tubule obstruction due to blood coagulation. The rat was placed in a warm and clean cage provided with water and food, waiting for the rat to wake up naturally.
After the rat regained consciousness and acted normally, assay on metabolic stability of compounds was performed in the rat. All the agents to be injected (including compounds to be tested and control drug) were dissolved in a mixed solvent of PEG400:Tween 80:normal saline (at a volume ratio of 5:5:90), at a concentration of 5 mg/mL. The agent was injected slowly at a dose of 30 mg/Kg via the tubule drawn out from the jugular vein. After administration, the time was recorded, and blood was collected from the tubule drawn out from carotid artery at 2, 5, 10, 20, 30, 60, 240, 360, and 720 min, in an amount of 200 μL for each time. The whole blood was placed in commercially available heparin sodium blood-collecting tube (Jiangxi Jingzhi Medical Equipment Co., Ltd.), centrifuged at 1800 g for 15 min. To the supernatant plasma, 150 μL pre-cooled methanol stopping buffer (containing internal standard E8, 1 nmol/sample) was added, vertically mixed well, and then centrifuged at 4° C., 12000 g for 10 min. The supernatant was transferred to a sample vial, the target compound was detected by LC-MS/MS, and the content of the compound was calculated by virtue of standard curve.

Data set [2] can be described thus: Stability assay in rat plasma. The following applies: 37° C. The format is in vitro ADME. How it is done:
To each of several tubes sub-packaged with rat plasma, PBS solution was added in a volume equal to a quarter of plasma volume, and the resultant mixture was mixed well. […] At different time points (0, 10, 30, 60, 120, 240, 360, 720, 1440 min), 50 μL plasma sample was taken and added to 150 μL precooled methanol (containing the internal standard compound E8, with a structure of
[drawing 117] and a name of 1-(2-Biphenyl-4-yl)ethyl-carbonyl pyrrolidine, 1 nmol/sample), wherein three parallel samples were prepared for each time point. The samples were then vertically mixed well, and centrifuged at 4° C., 12000 g for 10 min. The supernatant was transferred to a sample vial. LC-MS/MS was used to measure the peak area at different time points, Analyst® version 1.4.1. software was used to analyze chromatographic peak, and the content of the target compound was calculated by virtue of the standard curve.

The nature of data set [3]: Stability assays at acidic and basic conditions. Type of data set: physicochemical. How it is done:
The sample containing the compound to be tested was then incubated in a constant temperature shaker at 37° C. At different time points (0 min, 10 min, 30 min, 1 h, 2 h, 4 h, 6 h, 12 h, 24 h), 50 μL sample was taken and added to 150 μL precooled methanol (containing the internal standard E8, 1 nmol/sample), wherein three parallel samples were prepared for each time point. The samples were then vertically mixed well, and transferred to a sample vial. LC-MS/MS was used to measure the peak area at different time points, Analyst® version 1.4.1. software was used to analyze chromatographic peak, and the content of the target compound was calculated based on the standard curve.

For another data set, the target named is hERG potassium channel (Homo sapiens (Human), UniProt Q12809). Nature of the data set: hERG potassium channel automated patch clamp in CHO-hERG cells. How it is done: CHO-hERG cells (purchased from ATCC) were incubated in a culture flask. When the cell density reached 60˜80%, the culture medium (Glutamax DMEM/F12 medium (Gibco, Shanghai) containing 10% fetal bovine serum) was removed. The cells were washed with 7 mL PBS once, and then digested by adding 3 mL Detachin cell dissociation buffer. After complete digestion, the resultant mixture was neutralized by adding 7 mL culture medium, and centrifuged. The supernatant was removed with a pipette, 5 mL culture medium was added to re-suspend the cells to ensure a cell density of 2˜5×10^6/mL.
hERG potassium channel, sequence (Q12809 whole entry): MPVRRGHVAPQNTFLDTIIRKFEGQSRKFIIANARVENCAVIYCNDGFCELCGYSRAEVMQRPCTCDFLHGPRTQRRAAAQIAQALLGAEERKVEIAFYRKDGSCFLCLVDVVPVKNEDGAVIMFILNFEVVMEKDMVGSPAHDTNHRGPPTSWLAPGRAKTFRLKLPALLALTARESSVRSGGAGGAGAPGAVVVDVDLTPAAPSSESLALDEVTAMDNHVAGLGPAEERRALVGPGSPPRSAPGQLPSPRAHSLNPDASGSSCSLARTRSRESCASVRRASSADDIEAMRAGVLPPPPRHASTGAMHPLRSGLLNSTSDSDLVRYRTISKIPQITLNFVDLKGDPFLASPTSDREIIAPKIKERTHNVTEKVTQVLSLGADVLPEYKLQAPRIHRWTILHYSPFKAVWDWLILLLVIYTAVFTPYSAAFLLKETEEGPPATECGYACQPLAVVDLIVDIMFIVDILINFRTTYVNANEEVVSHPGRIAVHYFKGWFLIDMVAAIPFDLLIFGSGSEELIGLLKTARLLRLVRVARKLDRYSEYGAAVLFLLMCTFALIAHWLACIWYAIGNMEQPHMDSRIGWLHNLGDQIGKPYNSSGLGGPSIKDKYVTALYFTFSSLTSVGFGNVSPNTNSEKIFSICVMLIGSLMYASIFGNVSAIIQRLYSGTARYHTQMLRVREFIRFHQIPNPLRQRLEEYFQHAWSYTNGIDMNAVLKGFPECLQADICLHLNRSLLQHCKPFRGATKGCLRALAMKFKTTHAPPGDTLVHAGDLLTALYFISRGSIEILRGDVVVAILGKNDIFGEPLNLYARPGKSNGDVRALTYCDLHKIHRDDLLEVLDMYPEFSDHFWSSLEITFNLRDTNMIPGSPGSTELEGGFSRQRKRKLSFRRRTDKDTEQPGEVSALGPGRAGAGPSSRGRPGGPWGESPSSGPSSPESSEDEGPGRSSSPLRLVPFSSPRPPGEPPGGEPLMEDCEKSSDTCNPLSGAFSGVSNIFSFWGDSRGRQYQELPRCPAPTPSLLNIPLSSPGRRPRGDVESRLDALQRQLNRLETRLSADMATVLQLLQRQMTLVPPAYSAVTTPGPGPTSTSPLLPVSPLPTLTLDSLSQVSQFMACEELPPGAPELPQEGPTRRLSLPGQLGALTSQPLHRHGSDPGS
Intracellular fluid and extracellular fluid were prepared as described in the following table.
A certain amount of compound was dissolved in […] at the following concentrations, to prepare the stock solution of compound. 2 μL stock solution of compound was added to 998 μL extracellular fluid, and was subjected to 5-fold serial dilution in extracellular fluid containing 0.2% DMSO to get the final concentrates to be tested.
Single cell giga-seal and formation of whole-cell mode were automatically performed by Sophion Qpatch HT fully automated cell patch clamp systems. After obtaining the whole-cell recording mode, the cell was clamped at −80 mV. The cell first underwent pre-voltage of −50 mV for 50 msec, then underwent depolarization stimulation at 20 mV for 5 sec, and then underwent repolarization at −50 mV for 5 sec, and then the voltage return to −80 mv. The cell underwent the stimulation at the voltage every 15 sec, and the data were recorded for 2 min, then extracellular fluid was administered, and then the data were recorded for 2 min. Then, the administration process begun. The concentration of a test compound started from the lowest concentration, each test concentration was administered for 2 min. […] At least three cells were tested for each concentration (n≥3). The experimental data was analyzed by XLFit software.
On the technique in general: hERG is a cardiac potassium channel; its block is linked to QT prolongation.

The target of data set [4] is N-acylethanolamide hydrolyzing acid amidase (NAAA) (Rattus norvegicus, UniProt Q5KTC7). The experiment in a line: Endocannabinoid hydrolase activity: NAAA inhibition (17:1 FAE hydrolysis, LC-MS). The format is biochemical.
N-acylethanolamide hydrolyzing acid amidase (NAAA), sequence (Q5KTC7 34-130 limits assumed): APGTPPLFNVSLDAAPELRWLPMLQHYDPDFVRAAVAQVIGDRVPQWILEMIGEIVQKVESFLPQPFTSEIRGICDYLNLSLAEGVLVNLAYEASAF
N-acylethanolamide hydrolyzing acid amidase (NAAA), sequence (Q5KTC7 131-362 limits assumed): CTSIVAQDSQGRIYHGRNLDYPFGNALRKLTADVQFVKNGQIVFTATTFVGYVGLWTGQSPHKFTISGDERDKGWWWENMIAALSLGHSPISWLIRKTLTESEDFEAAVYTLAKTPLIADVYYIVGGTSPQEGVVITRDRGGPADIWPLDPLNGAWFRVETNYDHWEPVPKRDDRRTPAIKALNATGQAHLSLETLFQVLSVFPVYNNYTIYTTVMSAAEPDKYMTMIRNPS
Method: The preparation method was as followed: a plasmid (pCDNA3.1/NAAA or pCDNA3.1/FAAH) carrying a whole NAAA/FAAH gene was constructed, wherein the plasmid carried Cytomegalovirus (CMV) promoter and Neomycin selectable gene; the plasmid was transformed into HEK-293 cell via lipid medium, stable cell lines expressing NAAA/FAAH at a high level were obtained by G418 screening and Western-blot method. HEK-293 recombinant cells were cultured and collected, washed with PBS for 2-3 times, and ultrasonically treated in 20 mM Tris-HCl containing 0.32 M sucrose, then repeatedly frozen and thawed twice, and then centrifuged at 4° C., 800 g for 15 min. The supernatant (i.e., the desired protein) was collected, the protein concentration was determined by BCA method, and the protein was diluted to a concentration of 1 mg/mL, and sub-packaged and stored in a refrigerator at −80° C. for further use.
The reaction was carried out at 37° C. for 10 min. 170 μL buffer (the buffer consisted of 50 mM disodium Hydrogen Phosphate, 0.1% Triton X-100, 3 mM DTT, 150 μL) containing enzymatic hydrolysis substrate (the substrate was a heptadecenoyl ethanolamine containing a double bond and 17 carbon atoms, abbreviated as 17:1 FAE) was further added, wherein the concentration of 17:1 FAE was 5 μM. The reaction was carried out at 37° C. for 30 min, and 200 μL methanol solution containing internal standard (the internal standard was margaric acid, at a concentration of 1 nmol) was then added to stop the reaction. LC-MS was used to determine the yield of the hydrolysate 17:1 FA (i.e., a heptadecenoic acid containing a double bond) of 17:1 FAE, then a graph was plotted with Graphpad Prism 5. Thereby, the IC50 of the test compound on endocannabinoid hydrolase was determined.
Data set [5] relates to inflammatory abdominal pain caused by acetic acid. Nature of the data set: Abdominal inflammatory pain caused by acetic acid. The format is in vivo, Kunming mice. The following applies: mice, 10 mg/kg i.p. 1 h before acetic acid; indometacin 20 mg/kg (FIG. 4). As for the experimental part:
(§1) In the Experimental example, compounds to be evaluated or compounds to be tested or test compounds used are the Compounds 1-46 prepared in the Examples according to the invention. In the Experimental example, all the agents for injection, including compounds to be evaluated or compounds to be tested or test compounds, and positive control drug, were dissolved in a mixed solvent of PEG400:Tween 80:normal saline (at a volume ratio of 5:5:90), at a concentration of 5 mg/mL.
Typical model for studying inflammation-induced visceral pain medically was used to evaluate the therapeutic effects of compounds on inflammatory visceral pain. The model can represent general visceral pain including, but not only limited to appendicitis, gastritis, pancreatitis, prostatitis, myocarditis, interstitial cystitis, pain caused by hepatic, gall or kidney stone, irritable bowel syndrome, and chronic pelvic pain syndrome.
Experimental Kunming mice (purchased by Xiamen University Laboratory Animal Center from Shanghai SLAC Laboratory Animal Co., Ltd) were in an experimental environment with free access to food and water for 1 week. The mice were fasted for 24 h before administration. The compound to be evaluated (10 mg/kg) was administered to the mice by intraperitoneal injection at 1 h before administration of acetic acid, wherein the positive control drug indometacin was administered at a dose of 20 mg/kg, and the blank control was normal saline. Acetic acid (50 μL, acetic acid dissolved in normal saline, at a concentration of 5%) was administered to the mice by intraperitoneal injection, and the mice were then placed in the observation cage. A video camera was used to record the behavior of the mice in the following 20 min. Pain-related behavior was analyzed statistically based on torsion times of the mice in said period.

Data set [6] has as its system headache caused by nitroglycerin. Nature of the data set: Nitroglycerin-induced headache rat model. Type of data set: in vivo, Wistar rats. The conditions noted are these: rats, 10 mg/kg i.p. 1 h before nitroglycerin (FIG. 5). How it is done:
as §1
Nitroglycerin-induced headache rat model was a common model for studying inflammatory pain medically. The model was used in the invention to evaluate the therapeutic effects of the compounds on headache. The model can represent mixed pain including, but not only limited to: migraine, cluster headache, tension headache syndrome, prosopodynia, lumbodynia, shoulder pain, burning mouth syndrome, and complex regional pain syndrome.
Experimental Wistar rats with a body weight of about 250 g for each (purchased from Shanghai SLAC Laboratory Animal Co., Ltd) were in an experimental environment with free access to food and water for 1 week. The rats were fasted for 24 h before administration. The compound to be evaluated (10 mg/kg) was intraperitoneally injected to the rat at 1 h before the administration of nitroglycerin, wherein the positive control drug was indomethacin and the blank control was normal saline. Nitroglycerin (10 mg/kg, nitroglycerin dissolved in normal saline, at a concentration of 5%) was injected at epidermis of the rat neck, and the rats were then placed in the observation cage. A video camera was used to record the behavior of the rats in the following 60 min. Pain-related behavior was analyzed statistically based on the times that the rat scratched its head in said period.

In a further data set the test system is SNI neuropathic pain. Nature of the data set: Neuropathic pain mouse model induced by spared nerve injury (SNI). The conditions noted are these: SNI mice, 10 mg/kg intraperitoneal, 1 h and 4 h after administration (FIGS. 1 and 2). Type of data set: in vivo, C57BL/6 mice. How it is done: as §1
Neuropathic pain mouse model induced by spared nerve injury (SNI) is a common animal model for studying neuropathic pain medically. The invention uses the model to evaluate the therapeutic effects of the compounds on neuropathic pain, wherein the model can represent peripheral neuropathic pain including, but not limited to post-herpetic neuralgia, pain caused by diabetic perineuropathy, neurothlipsis and exudation caused by tumor, lumbar surgery failure syndrome, neuropathic pain caused by lumbar disc protrusion, postpartum neuralgia, trigeminal neuralgia, chemotherapy-induced multiple neuropathic pain, post-radiotherapy plexopathy, and radicular neuralgia.
C57BL/6 mice (purchased from Shanghai SLAC Laboratory Animal Co., Ltd) were anesthetized by intraperitoneal injection with pentobarbital sodium (40 mg/kg), and skin from knee joint to gluteal region was subjected to skin preparation and disinfection. After the mice were fixed, the knee joint part was cut about 1 cm longitudinally with bistoury, and muscle tissues were separated by blunt dissection to expose sciatic nerve. The tibial and common peroneal nerve branches of sciatic nerve stem were cut off carefully, and the cut was then stitched up. The mice was placed in a clean observation cage. In the sham-operation group, only sciatic nerve was exposed without cutting the tibial and common peroneal nerve branches. From the day before the experiment to 24 h after the operation, the plantar edges of the mice were stimulated everyday by […] (Ugo Basile Company (Italy), Product ID: 37450), and data was collected automatically to obtain the threshold value of mice to mechanical stimulation. […] The positive control drug gabapentin was administered at a dose of 100 mg/kg. All the agents to be injected were dissolved in a mixed solvent of PEG400:Tween 80:normal saline (at a volume ratio of 5:5:90), at a concentration of 5 mg/mL. By comparing the threshold values (the acting force of when the mouse retracting the paw) at different administration time in different administration groups, the compound was evaluated for its analgesic effect on neuropathic pain.

[7] abbreviates: PBS pH 5.0, 37° C., read-out: Half-life pH 5.0.
[8] abbreviates: PBS pH 7.4, 37° C., read-out: Half-life pH 7.4.

The term half-life denotes how long it takes for the measured level to halve. `O=C(CCCCCc1ccc(O)cc1)N1CCOC1=O` [Compound 31, 4-Hydroxyphenylhexanoyl Oxazolidinone]: in data set [1], the half-life stood at 1.23 h. The same compound gave a half-life at 2 μM in data set [2] of 2.2 h. Besides, the half-life at 1 μM in data set [3] (setting [7]) and in data set [3] (setting [8]) was > 24 h in each case.
As a reminder, the IC50 is the concentration needed to halve the response being measured. Lower therefore signals greater potency in that assay. With `O=C(CCCCCC1CCCNC1)N1CCOC1=O` (centres unmarked) [Compound 34, Piperidin-3-yl-hexanoyl Oxazolidinone], at hERG potassium channel, the half-inhibitory concentration (IC50) is > 40 µM.
On to `CC(=O)C[C@@H]1COC(=O)N1C(=O)CCCCCc1cccc(C)c1` [Compound 11], for which the half-life in data set [1] is 3.07 h. The same compound returned a half-life at 2 μM in data set [2] of 4.45 h. For the same compound, the half-life at 1 μM in data set [3] (setting [7]) and in data set [3] (setting [8]) was > 24 h in each case.
`Cc1ccc(CCCCCC(=O)N2CCOC2=O)cc1` [Compound 33, 4-Methylphenylhexanoyl Oxazolidinone] registered a half-maximal inhibitory concentration (IC50) in data set [4] of 0.44 µM.
Turning to `N[C@H]1CC(=O)N(C(=O)CCCCCc2ccccc2)C1` [Compound 30], the “effect of inhibiting abdominal inflammatory pain” value in data set [5] is listed as “did not exhibit any effect of inhibiting abdominal inflammatory pain”. Further, the “effect of inhibiting nitroglycerin-induced headache” value in data set [6] is recorded as “did not exhibit any effect of inhibiting headache in rats”. Moreover, in the data set with SNI neuropathic pain, the “effect of inhibiting central neuropathic pain” value is “did not exhibit any effect of inhibiting central neuropathic pain”.
In data set [1], `O=C(CCCCCc1cccc(F)c1)N1CCOC1=O` [Compound 8, 3-Fluorophenylhexanoyl Oxazolidinone] showed a half-life of 1.55 h. The compound also showed a half-life at 2 μM in data set [2] of 2.75 h. Further, the half-life at 1 μM in data set [3] (setting [7]) and in data set [3] (setting [8]) was > 24 h in each case.
Turning to `O=C1OCCN1C(=O)c1ccc(Oc2ccccc2)cc1` [Compound 41, 4-Phenoxybenzoyl Oxazolidinone], in data set [4], half-maximal inhibition (IC50) required 0.68 µM. This compound also displayed a half-life in data set [1] of 2.92 h. The half-life at 2 μM in data set [2] stood at 5.33 h. In addition, the half-life at 1 μM in data set [3] (setting [7]) and in data set [3] (setting [8]) was > 24 h throughout.
With `O=C1OCCN1C(=O)C1CCC(Cc2ccccc2)CC1` (centres unmarked) [Compound 24, 4-Benzylcyclohexanoyl Oxazolidinone], the “effect of inhibiting abdominal inflammatory pain” value in data set [5] was “did not exhibit any effect of inhibiting abdominal inflammatory pain”. Also, the “effect of inhibiting nitroglycerin-induced headache” value in data set [6] is reported as “did not exhibit any effect of inhibiting headache in rats”. In addition, in the data set with SNI neuropathic pain, the “effect of inhibiting central neuropathic pain” value is given as “did not exhibit any effect of inhibiting central neuropathic pain”.
In data set [4], `Cc1cccc(CCCCCC(=O)N2CCOC2=O)c1` [Compound 32, 3-Methylphenylhexanoyl Oxazolidinone] showed a half-inhibitory concentration (IC50) of 0.35 µM.
